Results reported in PubChem BioAssay (NCI).
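Tested at 5 concentrations; 48 h exposure; 96-well plates; endpoints linearly interpolated, else capped at highest concentration. TGI: concentration producing complete growth inhibition.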

How the values were obtained:
Assay in all cases: NCI-60 cell line screen, 48 h
786-0 renal = system: 786-0 renal
A498 renal = system: A498 renal
CCRF-CEM leukemia = system: CCRF-CEM leukemia
COLO 205 colon = system: COLO 205 colon
DU-145 prostate = system: DU-145 prostate
HOP-92 NSCLC = system: HOP-92 NSCLC
HS 578T breast = system: HS 578T breast
MALME-3M melanoma = system: MALME-3M melanoma
NCI-H226 lung = system: NCI-H226 lung
NCI-H23 lung = system: NCI-H23 lung
NCI-H460 lung = system: NCI-H460 lung
NCI-H522 lung = system: NCI-H522 lung
OVCAR-5 ovarian = system: OVCAR-5 ovarian
SF-295 CNS = system: SF-295 CNS
SNB-19 CNS = system: SNB-19 CNS
TK-10 renal = system: TK-10 renal
UACC-62 melanoma = system: UACC-62 melanoma
UO-31 renal = system: UO-31 renal

Row | Structure (SMILES) | TGI (786-0 renal) [µM] | TGI (A498 renal) [µM] | TGI (CCRF-CEM leukemia) [µM] | TGI (COLO 205 colon) [µM] | TGI (DU-145 prostate) [µM] | TGI (HOP-92 NSCLC) [µM] | TGI (HS 578T breast) [µM] | TGI (MALME-3M melanoma) [µM] | TGI (NCI-H226 lung) [µM] | TGI (NCI-H23 lung) [µM] | TGI (NCI-H460 lung) [µM] | TGI (NCI-H522 lung) [µM] | TGI (OVCAR-5 ovarian) [µM] | TGI (SF-295 CNS) [µM] | TGI (SNB-19 CNS) [µM] | TGI (TK-10 renal) [µM] | TGI (UACC-62 melanoma) [µM] | TGI (UO-31 renal) [µM]
1 | NC(=O)SCCC(N)C(=O)O (configuration not stated) | > 100 | > 100 | > 100 | > 100 | > 100 | > 100 | > 100 | > 100 | > 100 | > 100 | > 100 | > 100 | > 100 | > 100 | > 100 | > 100 | > 100 | > 100
2 | CC(C)(C)OC(=O)NCCCC(=O)NC1(c2cc3ccccc3s2)CCCCC1 | 37.4 | 51 | 28.4 | 29 | > 100 | 37.6 | 45.8 | 37 |  | 51 | 40.1 | 34.1 |  | 34 | > 100 | 97.2 | 24.3 | 14.8
3 | OC(c1ccc2c(c1)OCO2)c1ccc2c(c1)OCO2 | > 100 | > 100 | > 100 | > 100 | > 100 | > 100 | > 100 | > 100 | > 100 | > 100 | > 100 | > 100 | > 100 | > 100 | > 100 | > 100 | > 100 | > 100
4 | O=C1c2c(ccc3c2CCC3)CC12Cc1ccccc1C2 | 91.5 | 96.2 | 46.1 | 53.1 | > 100 | 41 | > 100 | 54 | 62.8 | > 100 | 96.1 | 73.7 | > 100 | > 100 | > 100 | > 100 |  | 59.7
5 | c1ccc(C(=NCCC2CNc3ccccc32)c2ccccc2)cc1 (configuration not stated) | > 100 | > 100 | > 100 | > 100 | > 100 | > 100 | > 100 | > 100 |  | > 100 | > 100 | > 100 | > 100 | > 100 | > 100 |  | > 100 | > 100
6 | O=c1cc(N=Nc2ccc(Cl)c(Cl)c2)[nH]c(=O)[nH]1 | 2.86 | 28.8 | 0.495 | 3.36 | 9.19 | 3.07 | 13.1 | 4.53 | 33.2 | 10.7 | 7.46 | 2.81 | 11.2 | 32.5 | 26.6 | 3.18 | 4.61 | 4.93
7 | CC1(c2ccc(Cl)s2)CC(c2ccc(Cl)s2)=C(C#N)C(=C(C#N)C#N)N1 (configuration not stated) | 40.6 | 37.8 | > 100 | 61.1 | 30.6 | 38.8 | 61.6 | 43.1 | > 100 | 42.2 | 82.6 |  | 35.8 | 29.8 | 44.2 | 38.1 | 30.7 | 34.5
8 | O=C1NNC2NC(=O)C3(NN2C1=O)c1ccccc1-c1ccccc13 (configuration not stated) | > 100 | > 100 | > 100 | > 100 | > 100 | > 100 | > 100 | > 100 | > 100 | > 100 | > 100 | > 100 | > 100 | > 100 | > 100 | > 100 | > 100 | > 100
9 | COC1(OC)C=CC2C1C1C=CC2C1(OC)OC (configuration not stated) | > 100 | > 100 | > 100 | > 100 | > 100 | > 100 | > 100 | > 100 | > 100 | > 100 | > 100 | > 100 | > 100 | > 100 | > 100 | > 100 | > 100 | > 100
10 | CCCCCCCCCCCCCCCCCCNc1nc(=O)n(C2CC(O)C(COP(=O)(O)OCC3OC(n4ccc(N)nc4=O)C(O)C3O)O2)cc1F (configuration not stated) | > 100 | > 100 | > 100 | > 100 | > 100 | > 100 | > 100 | > 100 | > 100 | > 100 | > 100 | 65.3 | > 100 | > 100 | > 100 | > 100 | > 100 | > 100
11 | ON[C@H]1C[C@@H](n2cnc3c(NC4CC4)ncnc32)[C@H](O)[C@@H]1O | > 100 | > 100 | > 100 | > 100 | > 100 | > 100 | > 100 | > 100 | > 100 | > 100 | > 100 | > 100 | > 100 | > 100 | > 100 | > 100 | > 100 | > 100
12 | CSC1=NNC(SC)=NN1 | 0.328 | > 1 | > 1 | 0.413 | 0.345 | 0.316 | 0.38 | 0.289 | 0.389 | 0.7 | 0.385 | 0.555 | 0.324 | 0.34 | 0.336 | 0.357 | 0.29 | 0.328
13 | COC(=O)C(COC(=O)/C=C/c1ccc(OC(C)=O)c(OC(C)=O)c1)NC(=O)/C=C/c1ccc(OC(C)=O)c(OC(C)=O)c1 (configuration not stated) | 47.2 | > 100 | > 100 | 43.4 | 45.2 | > 100 | > 100 | 32 | > 100 | 73.4 | 48.1 | 37.8 | > 100 |  | > 100 |  | 35.1 | 
14 | COc1ccc(C2=C(N)c3ncccc3C2=O)cc1 | > 100 | > 100 | > 100 | > 100 | > 100 | > 10 | > 100 | > 100 | > 100 | > 100 | > 100 |  | > 100 | > 100 | > 100 | > 10 | > 100 | > 100
